Like-named read-outs stand apart in the source and are kept apart here.
How the values were obtained:
[1] = tested on: laying hens; conditions: cited from earlier work
[2] = tested on: hens of ISA Brown strain; experiment: Laying parameters of hens after a single subcutaneous administration of tiludronic acid (disodium tiludronate) before onset of laying; format: in vivo, hen; conditions: for Age of onset of laying: hens monitored up to 55 weeks old; for Average number of eggs laid per hen and per week / Average total number of eggs laid per hen: from onset of laying up to 55 weeks old
Procedure: (§1) A total number of 216 hens of ISA Brown strain between 15 and 17 weeks old was divided into 3 groups for the purpose of evaluating the effects on the production of eggs of a single subcutaneous administration of tiludronic acid, in the form of its sodium salt (disodium tiludronate).
(§2) Three doses were compared: 0, 1 and 10 mg/kg (corresponding amount of tiludronic acid/kg). The tiludronic acid was administered in the form of injectable aqueous solutions such that the volume injected per bird was 1 ml per kilo of live weight. The tiludronic acid solutions were thus concentrated to 0.1% and 1% for the doses of 1 and 10 mg/kg, respectively. The control group received a placebo corresponding to water for an injectable preparation. The injections were performed subcutaneously in the region above the superficial pectoral muscle.
The hens were housed in individual cages in the same building at controlled temperature and hygrometry. Each animal was identified by a number carried on a ring attached to a wing. They received the same standard feed for laying hens, freely throughout the duration of the study. Drinking water was also distributed freely.
The average age of onset of laying for the hens in this strain is 20 weeks, with extremes of between 18 and 23 weeks. Consequently, for the hens of this study, the average delay between the treatment and the age of onset of laying had to be from 3 to 5 weeks. The duration of the study was 40 weeks. At the end of the study, the hens were 55 weeks old.
The other half of the total number of hens was monitored in order to collect the following laying parameters: age on laying the first egg and total number of eggs laid up to 55 weeks old. For each group, the average number of eggs laid per hen and per week was calculated over the entire laying period and week by week, in order to establish the laying curves.
(§3) The “age of onset of laying”, “total number of eggs laid per hen”, “number of eggs laid per hen and per week over the entire laying period”, “mechanical strength of the shell”, “thickness of the shell” and “medullary bone volume” criteria were compared by means of a single-factor variance analysis (dose factor).

[3] = tested on: hens of ISA Brown strain; experiment: Mechanical strength of the eggshell by quasi-static compression; format: in vivo, hen; conditions: for Mechanical strength of the shell at 23 weeks: 23 weeks old; for Mechanical strength of the shell at 54 weeks: 54 weeks old
Procedure: as §1, §2
(§4) Moreover, an analysis of the mechanical strength of the shell and the thickness of the mineralized part of the shell was carried out using a sample of 12 hens at the following two dates of maturity: at 23 weeks old (i.e. at the start of laying) and at 54 weeks old. The strength of the shell was measured quantitatively by a technique of quasi-static compression of the eggshell. The thickness of the shell was measured from images obtained with an electron microscope.
as §3

[4] = tested on: hens of ISA Brown strain; experiment: Thickness of the mineralized part of the shell from electron microscope images; format: in vivo, hen; conditions: for Thickness of the mineralized part of the shell at 23 weeks: 23 weeks old; for Thickness of the mineralized part of the shell at 54 weeks: 54 weeks old
Procedure: as §1, §2, §4, §3

[5] = tested on: hens of ISA Brown strain; experiment: Histomorphometric examination of tarsometatarsal bone (medullary bone volume); format: in vivo, hen; conditions: for Multiplication factor of medullary bone volume: onset of laying to 55 weeks old
Procedure: as §1, §2
One half of the total number of hens was sacrificed on laying the first egg, in order to carry out a histomorphometric examination. This examination was performed on one of the two tarsometatarsal bones.
At 55 weeks old, all the animals were sacrificed and a histomorphometric examination of one of the tarsometatarsal bones was performed under the same conditions as on the bones of the hens sacrificed on laying of the first egg.
as §3

[6] = treated groups, laying curves FIG. 1 and 2

NCCCC(O)(P(=O)(O)O)P(=O)(O)O [alendronate, [4-amino-1-hydroxybutylidene] bisphosphonate]
Effect on laying ([1]; 1 mg/kg subcutaneously every 2 days for 2 weeks, about 18 weeks after onset of laying, within a few days): complete stoppage of laying
Effect on laying ([1]; 0.01, 0.1 or 1 mg/kg during laying): reduction, or even the stopping, of laying
Effect on the quality of the shell ([1]; administration during laying, more pronounced the higher the dose): adverse change in the quality of the shell

O=P(O)(O)C(Sc1ccc(Cl)cc1)P(=O)(O)O [tiludronic acid, 4-chlorophenylthiomethylenebisphosphonic acid]
Total number of eggs laid per hen versus control group (2-by-2 analysis) ([2]; 1 mg/kg): significantly higher
Age of onset of laying ([2]; 1 mg/kg single subcutaneous dose): 148.3 ± 7.8 days
Average number of eggs laid per hen and per week ([2]; 1 mg/kg): 6.53 ± 0.27
Average total number of eggs laid per hen ([2]; 1 mg/kg): 221.6 ± 11.2
Start of laying on average after the hens of the other 2 groups ([2]; 1 mg/kg, no significant difference (p=0.11)): 3 days
Age of onset of laying ([2]; 10 mg/kg single subcutaneous dose): 145.1 ± 8.8 days
Average number of eggs laid per hen and per week ([2]; 10 mg/kg): 6.39 ± 0.34
Average total number of eggs laid per hen ([2]; 10 mg/kg): 219.8 ± 12.6
Laying peak compared with control group [2, 6]: higher
Slope of the laying curve compared with controls [2, 6]: substantially smaller
Change in the age of onset of laying ([2]; treatment with tiludronic acid, 1 and 10 mg/kg): did not result in any change
Mechanical strength of the shell at 23 weeks ([3]; 1 mg/kg): 39.3 ± 5.2 N
Mechanical strength of the shell at 54 weeks ([3]; 1 mg/kg): 28.3 ± 4.9 N
Mechanical strength of the shell at 23 weeks ([3]; 10 mg/kg): 41.5 ± 6.3 N
Mechanical strength of the shell at 54 weeks ([3]; 10 mg/kg): 30.3 ± 6.1 N
Loss of mechanical strength of the eggshells between the two maturity dates of measurement ([3]; two treated groups (1 and 10 mg/kg), between 23 and 54 weeks): about −28%
Thickness of the mineralized part of the shell at 23 weeks ([4]; 1 mg/kg): 0.256 ± 0.025 mm
Thickness of the mineralized part of the shell at 54 weeks ([4]; 1 mg/kg): 0.267 ± 0.026 mm
Thickness of the mineralized part of the shell at 23 weeks ([4]; 10 mg/kg): 0.272 ± 0.013 mm
Thickness of the mineralized part of the shell at 54 weeks ([4]; 10 mg/kg): 0.273 ± 0.021 mm
Volume of medullary bone of the tarsometatarsal bone at 55 weeks old ([5]; 1 mg/kg): 2.75 ± 2.72%
Volume of medullary bone of the tarsometatarsal bone at the onset of laying ([5]; 1 mg/kg): 0.31 ± 0.53%
Multiplication factor of medullary bone volume ([5]; 1 mg/kg): 9
Volume of medullary bone of the tarsometatarsal bone at 55 weeks old ([5]; 10 mg/kg): 3.53 ± 3.04%
Volume of medullary bone of the tarsometatarsal bone at the onset of laying ([5]; 10 mg/kg): 0.26 ± 0.33%
Multiplication factor of medullary bone volume ([5]; 10 mg/kg): 13

Source: patent publication US20030013685A1, “Process for increasing the egg production and strengthening the eggshells of poultry” (priority 2000, published 2003)
